What was measured:
[1] = tested on: acyl-HSL degrading strains of potato rhizosphere; experiment: GCL treatment of potato plants in long-term hydroponic culture (FIG. 12); type: in vivo, Solanum tuberosum; set-up: dose or concentration left out as unconfirmed; conditions: 0.4 at D0, D18 and D49; at D28, D49 and D56
Description: The plants were cultivated in hydroponic batches from D0 to D17, then transferred into hydroponic system allowing the long term culture until tuberisation. At each time, three samples (D0 and D7) and four samples (D28, D49 and D56) were analyzed: the number of CFU/g of roots was estimated (B), as well as the percentage of acyl-HSL-producing (C) and acyl-HSL degrading strains. Different letters indicate a significative difference (Student's t-test; α=0.05) between the two conditions, untreated and GCL-treated.
The plants were cultivated in hydroponic batches from D0 to D17, then transferred into hydroponic system allowing the long term culture until tuberisation.

[2] = tested on: bacterial populations of potato roots; experiment: DGGE analysis of bacterial populations associated with roots; type: in vivo, Solanum tuberosum; conditions: D14 and D28; 0.1 and 0.4 mL/L, most visible at 0.4 mL/L
Description: FIG. 11: DGGE analyses. […] Numbered bands on pictures were analyzed by sequencing. For each sequence or group of sequences, one of the closest rrs sequences was indicated. It is identified by its Genbank number, the similarity indice (SI) (calculated at Ribosomal Database Project http://rdp.cme.msu.edu/), and the name and taxonomical position of the bacteria of origin (Bact, Bacteria; BC, Bacteroidetes/Chlorobi group; Firm, Firmicutes; α,α-proteobacteria; β,β-proteobacteria; and γ,γ-proteobacteria).
The structure of the bacterial population associated with roots system (ca. 10 g) was analyzed by DGGE of PCR-amplified rrs region (position 341-534 of E. coli sequence). Two samples were analyzed from each batch. The DGGE analysis was performed by Microbial Insights (Rockford, Tenn., USA), as previously described (d'Angelo-Picard et al., 2004). Band positions in each line were converted to 0 (absence) and 1 (presence) value and assembled in a matrix. Profile similarity was calculated with the Dice algorithm using DistAFLP software (http://pbil.univ-lyon1.fr/ADE-4/microb). Sequence identification of selected bands was performed using the sequence match facility of the Ribosomal Database Project (http://rdp.cme.msu.edu/), according to NCBI taxonomy (http://www.ncbi.nlm.nih.gov/Taxonomy/). […]

**Q.** What does the source list for CCC1CCC(=O)O1 (centres unmarked) [GCL, gamma-caprolactone]?
**A.** effect on the percentage of acyl-HSL degraders [1]: clear effect; change of bacterial populations by DGGE [2]: drastic remodelling of bacterial populations
